Test results: patent US20240299535A1, “TARGETED GLYCOSAMINOGLYCAN-PARTICLES AND METHODS OF USE” (priority 2021, published 2024)

Columns and labels:
RAW 264.7 macrophages [1] = assay: Endocytosis inhibition study of HEP-AuNP uptake (ICP-MS); format: cell-based, murine; details: for inhibitory effects for nanoparticle uptake: dose escalation, 0-31.4 μM chlorpromazine, 0-3.9 μM cytochalasin D; for nanoparticle cellular uptake inhibition efficiencies / effect on nanoparticle cellular uptake: inhibitor screen, 1 h pre-incubation, nanoparticles 1.5 hours
Experimental: Panel (A) is a schematic representation of the uptake pathway study: (i) non-specific endocytosis inhibition to determine whether nanoparticle cellular uptake is energy-dependent. (ii-iv) Specific endocytosis inhibitors for studying (ii) caveolae-mediated endocytosis, (iii) clathrin-mediated endocytosis, and (iv) macropinocytosis. Panels (B) to (D) are ICP-MS quantification of the nanoparticle cellular uptake in RAW 264.7 macrophages at 4° C.—Panel (B), in the presence of ATPase inhibitor sodium azide—Panel (C), or chemical endocytosis inhibitors of caveolae-mediated endocytosis, clathrin-mediated endocytosis, and […]—Panel (D). AuNPs modified with 13-kDa HEP (at 0.2 nM) were used as control without inhibitors at 37° C. Bars indicate mean±SD (n=3-4); statistical tests used one-way ANOVA (p<0.0001 (****); p<0.0021 (**); p<0.0332 (*).
We hypothesized that these nanoparticles might enter cells via endocytosis by one or more energy-dependent uptake pathways. Thus, we carried out a systematic endocytosis inhibition study to discern which uptake pathways were involved.
First, we pre-incubated the innate immune cells for 1 h with the endocytosis inhibitors. Then we added the nanoparticles and incubated them with the cells for 1.5 hours. We imaged the cells with a light microscope and quantified the nanoparticle uptake by ICP-MS (FIG. 2, Panel (D)).
(§1) We performed systematic dose escalation studies to assess the dose-response of the inhibitory effect and the cell toxicity of these two agents. Based on the previous dose screening experiments and published cell viability data the dose ranges were 0-31.4 μM and 0-3.9 μM for chlorpromazine and cytochalasin D, respectively.

DC 2.4 dendritic cells [2] = assay: as above; format: cell-based, murine
Experimental: To test whether the HEP-coated nanoparticles could enter cells through clathrin-mediated endocytosis and macropinocytosis and/or phagocytosis in another immune cell line, we conducted further inhibition experiments in DC 2.4 dendritic cells. […] Additionally, we co-incubated chlorpromazine and cytochalasin D inhibitors with cells to test if there was any additive endocytosis inhibitory effect.

RAW264.7 macrophages = assay: Cell viability assays with endocytosis inhibitors; details: 0-31.4 μM chlorpromazine, 0-3.9 μM cytochalasin D
Experimental: as §1

RAW 264.7 macrophages [3] = assay: HEP structural analog competition of HEP-AuNP uptake (ICP-MS); format: cell-based, murine; details: pre-incubation with competitor
Description: To quantify the nanoparticles' cellular interactions, we performed quantitative ICP-MS and corroborated the results qualitatively with light microscopy. […] No significant competition with the remaining structural analogs was observed.

DC 2.4 dendritic cells [4] = assay: CS A competition of HEP-AuNP uptake (ICP-MS); format: cell-based, murine; details: 1 hour pre-incubation, nanoparticles 2.5 hour; non-cytotoxic doses
Description: Next, we expanded the structural analog competition study to DC 2.4 dendritic cells. […] We quantified the competition efficiency by ICP-MS and corroborated the results with light microscopy.

cell uptake of HEP-AuNPs = assay: CS A competition as a function of time and concentration (ICP-MS); format: cell-based
Description: We further assessed the competition effect of CS A as a function of time and concentration at non-cytotoxic levels. […] These competition experiments with GAG structural analog polymers imply that CS A can substitute to some degree as a ligand for HEP for the internalization receptor(s).

RAW 264.7 macrophages [5] = tested on: RAW 264.7 macrophages
Description: We next investigated whether the CS A inhibitory effect of HEP-AuNP uptake was due to a potential toxicity effect of the CS A preparation, which was extracted from a mammalian source.

[N-]=[N+]=[N-] [sodium azide]
reduction of cellular uptake of HEP-AuNPs (RAW 264.7 macrophages [1]; 0.1% w/v sodium azide): approximately 22%

C=C1[C@@H](C)[C@H]2[C@H](Cc3ccccc3)NC(=O)[C@]23[C@H](OC(C)=O)/C=C/[C@@](C)(O)C(=O)[C@@H](C)C/C=C/[C@H]3[C@@H]1O [cytochalasin D]
inhibitory effects for nanoparticle uptake (RAW 264.7 macrophages [1]): approximately 51%
nanoparticle cellular uptake inhibition efficiencies (RAW 264.7 macrophages [1]): ~24%
reduction of HEP-AuNP uptake (DC 2.4 dendritic cells [2]): approximately 77%
cytotoxicity of inhibitor doses (RAW264.7 macrophages): not cytotoxic

heparin
reduction of cellular uptake of HEP-AuNPs vs no-competitor group (RAW 264.7 macrophages [3]): approximately 18%

CCN(c1nc(N)c(C(=O)N=C(N)N)nc1Cl)C(C)C [EIPA, 5-(N-ethyl-N-isopropyl) amiloride]
effect on nanoparticle cellular uptake (RAW 264.7 macrophages [1]): did not reduce the nanoparticle cellular uptake

CCCCC[C@@H](O)[C@H]1C(=O)O[C@H](C)[C@@H](O)/C=C/C=C/C=C/C=C/C=C(\C)[C@@H](O)C[C@H](O)C[C@H](O)C[C@H](O)C[C@H](O)C[C@H](O)C[C@@H]1O [Filipin]
effect on nanoparticle cellular uptake (RAW 264.7 macrophages [1]): did not reduce the nanoparticle cellular uptake

CCN(CC)CCCC(C)Nc1ccnc2cc(Cl)ccc12 (centres unmarked) [chloroquine]
nanoparticle cellular uptake inhibition efficiencies (RAW 264.7 macrophages [1]): ~12%

CN(C)CCCN1c2ccccc2Sc2ccc(Cl)cc21 [chlorpromazine]
inhibitory effects for nanoparticle uptake (RAW 264.7 macrophages [1]): approximately 70%
nanoparticle cellular uptake inhibition efficiencies (RAW 264.7 macrophages [1]): approximately 73%
reduction of HEP-AuNP uptake (DC 2.4 dendritic cells [2]): approximately 77%
cytotoxicity of inhibitor doses (RAW264.7 macrophages): not cytotoxic

CN(C)CCCN1c2ccccc2CCc2ccccc21 [imipramine]
nanoparticle cellular uptake inhibition efficiencies (RAW 264.7 macrophages [1]): ~8%

Chondroitin Sulfate C [CS C]
reduction of cellular uptake of HEP-AuNPs vs no-competitor group (RAW 264.7 macrophages [3]): approximately 15%

O=C(N/N=C/c1ccc(O)c(O)c1)c1cc2ccccc2cc1O [Dynasore]
effect on nanoparticle cellular uptake (RAW 264.7 macrophages [1]): did not reduce the nanoparticle cellular uptake

CCN1C(=O)C=CC1=O [N-ethylmaleimide]
effect on nanoparticle cellular uptake (RAW 264.7 macrophages [1]): did not reduce the nanoparticle cellular uptake

Chondroitin Sulfate A [CS A]
reduction of cellular uptake of HEP-AuNPs vs no-competitor group (RAW 264.7 macrophages [3]): ~43%
nanoparticle uptake vs no-competitor group (DC 2.4 dendritic cells [4]): lower nanoparticle uptake
IC50 (inhibitor dose-response of HEP-AuNP uptake) (cell uptake of HEP-AuNPs): 0.5 mg/mL
inhibitory effect over time (cell uptake of HEP-AuNPs; 1 mg/mL): persisted throughout time
suppression of cellular uptake of HEP-AuNPs (cell uptake of HEP-AuNPs; 2 mg/mL): up to 9 fold
effect on cell viability (RAW 264.7 macrophages [5]): did not affect cell viability
